Data: paper PMC12566511, “The Evaluation of (1R,4R,7R,10R)-α,α′,α″,α‴-Tetramethyl-1,4,7,10-tetraazacyclododecane-1,4,7,10-tetraacetic Acid (DOTMA) as a Chelator for Zirconium-89” (Molecules, 2025)

Legend:
[1] = Biodistribution studies in non-tumor-bearing, normal mice; assay type: in vivo, female NIH Swiss mice; details: for Biodistribution (%ID/g) Blood / Biodistribution (%ID/g) Bone / Biodistribution (%ID/g) Fat / Biodistribution (%ID/g) Heart / Biodistribution (%ID/g) Kidney / Biodistribution (%ID/g) Large intestine / Biodistribution (%ID/g) Liver / Biodistribution (%ID/g) Lung / Biodistribution (%ID/g) Muscle / Biodistribution (%ID/g) Pancreas / Biodistribution (%ID/g) Small intestine / Biodistribution (%ID/g) Spleen / Biodistribution (%ID/g) Stomach: tail vein, n = 6
Method: Female NIH Swiss mice (6–8 weeks old) were purchased from Inotiv, Lafayette, IN, USA. All animals were acclimated to a 12 h light/dark cycle and received food and water ad libitum for 5 days before any manipulations were performed. All animals were checked by veterinary staff daily to ensure well-being and proper environment and to monitor for signs of distress. Clinical signs of distress in laboratory rodents include decreased activity, pilo-erection, un-groomed appearance, excessive licking and scratching, self-mutilation, abnormal stance, hunched appearance, rapid or shallow respiration, grunting, dilated pupils, aggressiveness towards handler, high-pitched vocalizations, change in feeding activity, and attempts to separate from group. In the event of clinical distress, animals were euthanized after consulting the on-call veterinarian. To minimize suffering during the tail vain injection, animals were kept under deep isoflurane anesthesia. At the end point of the study, animals were anesthetized with isoflurane and were euthanized by cervical dislocation, which is consistent with the recommendations of the American Veterinary Medical Association Guidelines on Euthanasia.
Biodistribution studies were conducted using a modified literature procedure. Briefly, female NIH Swiss mice (6–8 weeks old, n = 6/cohort; 30 animals total) were injected with [^89Zr]Zr-DOTMA (0.55 MBq (15 μCi)/mouse) via the tail vein and sacrificed at 2, 4, 24, 48, and 72 h p.i. Organs and tissues of interest were excised, weighed, and counted on a gamma counter. The percent injected dose per gram (%ID/g) was calculated by comparison to a weighed, counted standard for each group.

[2] = Partition coefficient (LogP), water/octanol partition method; assay type: physicochemical; details: octanol/water (pH 5.5), room temperature, n = 5
Method: The partition coefficient (LogP) was determined by adding 5 μL of [^89Zr]Zr-DOTMA (~5 μCi; 0.19 MBq) to a mixture of 500 μL of octanol and 500 μL of water (pH 5.5). The resulting solutions (n = 5) were vigorously vortexed for 5 min at room temperature, then centrifuged for 5 min to ensure complete separation of layers. From each of the five sets, a 50 μL aliquot was removed from each phase into new tubes and counted separately in a gamma counter. Each organic phase was washed with water to remove any radioactivity remaining in the organic phase before gamma counting. The partition coefficient was calculated as a ratio of counts in the octanol fraction to counts in the water fraction. The LogP values were reported as an average of five measurements.

[3] = In vitro serum stability study; assay type: in vitro ADME, human; details: for % Intact of [^89Zr]Zr-DOTMA (n = 3) Radio-ITLC / % Intact of [^89Zr]Zr-DOTMA (n = 3) Radio-SE-HPLC: human serum, 37 °C
Method: The in vitro serum stability was determined by adding 20 μL of [^89Zr]Zr-DOTMA (113–124 μCi, 4.2–4.6 MBq) to 500 μL of human serum. The solutions (n = 3) were incubated at 37 °C for 7 days and were analyzed daily for 1 week by radio-TLC using Varian ITLC-SA strips, 0.1 M EDTA (pH 5) as the mobile phase, and gamma counting. Samples were also analyzed at 1, 3, 5, and 7 days via size exclusion chromatography (SEC) using a Superdex 200 10/300 GL column (GE Healthcare Life Sciences, Piscataway, NJ, USA) and phosphate buffered saline (PBS) as an eluent with a flow rate of 0.5 mL/min. Fractions (0.5 mL per tube) were collected, and the activity in each fraction was measured in a gamma counter. The percent intact radiopharmaceutical was determined by […] in the chromatogram and multiplying by a factor of 100%.

CC(C(=O)[O-])N1CCN(C(C)C(=O)[O-])CCN(C(C)C(=O)[O-])CCN(C(C)C(=O)[O-])CC1.[89Zr+4] (centres unmarked) [[^89Zr]Zr-DOTMA]
Biodistribution (%ID/g) Blood ([1]; 2 h p.i.): 0.011 ± 0.001 %ID/g | Biodistribution (%ID/g) Bone ([1]; 2 h p.i.): 0.032 ± 0.006 %ID/g | Biodistribution (%ID/g) Fat ([1]; 2 h p.i.): 0.007 ± 0.003 %ID/g | Biodistribution (%ID/g) Heart ([1]; 2 h p.i.): 0.021 ± 0.003 %ID/g | Biodistribution (%ID/g) Kidney ([1]; 2 h p.i.): 1.053 ± 0.071 %ID/g | Biodistribution (%ID/g) Large intestine ([1]; 2 h p.i.): 0.523 ± 0.112 %ID/g | Biodistribution (%ID/g) Liver ([1]; 2 h p.i.): 0.238 ± 0.020 %ID/g | Biodistribution (%ID/g) Lung ([1]; 2 h p.i.): 0.071 ± 0.006 %ID/g | Biodistribution (%ID/g) Muscle ([1]; 2 h p.i.): 0.008 ± 0.003 %ID/g | Biodistribution (%ID/g) Pancreas ([1]; 2 h p.i.): 0.011 ± 0.003 %ID/g | Biodistribution (%ID/g) Small intestine ([1]; 2 h p.i.): 0.229 ± 0.039 %ID/g | Biodistribution (%ID/g) Spleen ([1]; 2 h p.i.): 0.078 ± 0.008 %ID/g | Biodistribution (%ID/g) Stomach ([1]; 2 h p.i.): 0.069 ± 0.008 %ID/g | Biodistribution (%ID/g) Blood ([1]; 4 h p.i.): 0.008 ± 0.001 %ID/g | Biodistribution (%ID/g) Bone ([1]; 4 h p.i.): 0.024 ± 0.004 %ID/g | Biodistribution (%ID/g) Fat ([1]; 4 h p.i.): 0.006 ± 0.002 %ID/g | Biodistribution (%ID/g) Heart ([1]; 4 h p.i.): 0.019 ± 0.004 %ID/g | Biodistribution (%ID/g) Kidney ([1]; 4 h p.i.): 0.689 ± 0.086 %ID/g | Biodistribution (%ID/g) Large intestine ([1]; 4 h p.i.): 0.632 ± 0.088 %ID/g | Biodistribution (%ID/g) Liver ([1]; 4 h p.i.): 0.123 ± 0.017 %ID/g | Biodistribution (%ID/g) Lung ([1]; 4 h p.i.): 0.060 ± 0.005 %ID/g | Biodistribution (%ID/g) Muscle ([1]; 4 h p.i.): 0.004 ± 0.002 %ID/g | Biodistribution (%ID/g) Pancreas ([1]; 4 h p.i.): 0.010 ± 0.004 %ID/g | Biodistribution (%ID/g) Small intestine ([1]; 4 h p.i.): 0.080 ± 0.007 %ID/g | Biodistribution (%ID/g) Spleen ([1]; 4 h p.i.): 0.076 ± 0.004 %ID/g | Biodistribution (%ID/g) Stomach ([1]; 4 h p.i.): 0.013 ± 0.005 %ID/g | Biodistribution (%ID/g) Blood ([1]; 24 h p.i.): 0.005 ± 0.001 %ID/g | Biodistribution (%ID/g) Bone ([1]; 24 h p.i.): 0.026 ± 0.004 %ID/g | Biodistribution (%ID/g) Fat ([1]; 24 h p.i.): 0.005 ± 0.002 %ID/g | Biodistribution (%ID/g) Heart ([1]; 24 h p.i.): 0.009 ± 0.002 %ID/g | Biodistribution (%ID/g) Kidney ([1]; 24 h p.i.): 0.077 ± 0.009 %ID/g | Biodistribution (%ID/g) Large intestine ([1]; 24 h p.i.): 0.022 ± 0.008 %ID/g | Biodistribution (%ID/g) Liver ([1]; 24 h p.i.): 0.018 ± 0.002 %ID/g | Biodistribution (%ID/g) Lung ([1]; 24 h p.i.): 0.033 ± 0.004 %ID/g | Biodistribution (%ID/g) Muscle ([1]; 24 h p.i.): 0.001 ± 0.000 %ID/g | Biodistribution (%ID/g) Pancreas ([1]; 24 h p.i.): 0.003 ± 0.001 %ID/g | Biodistribution (%ID/g) Small intestine ([1]; 24 h p.i.): 0.007 ± 0.001 %ID/g | Biodistribution (%ID/g) Spleen ([1]; 24 h p.i.): 0.044 ± 0.005 %ID/g | Biodistribution (%ID/g) Stomach ([1]; 24 h p.i.): 0.005 ± 0.002 %ID/g | Biodistribution (%ID/g) Blood ([1]; 48 h p.i.): 0.004 ± 0.001 %ID/g | Biodistribution (%ID/g) Bone ([1]; 48 h p.i.): 0.023 ± 0.004 %ID/g | Biodistribution (%ID/g) Fat ([1]; 48 h p.i.): 0.002 ± 0.001 %ID/g | Biodistribution (%ID/g) Heart ([1]; 48 h p.i.): 0.004 ± 0.002 %ID/g | Biodistribution (%ID/g) Kidney ([1]; 48 h p.i.): 0.021 ± 0.003 %ID/g | Biodistribution (%ID/g) Large intestine ([1]; 48 h p.i.): 0.003 ± 0.001 %ID/g | Biodistribution (%ID/g) Liver ([1]; 48 h p.i.): 0.008 ± 0.001 %ID/g | Biodistribution (%ID/g) Lung ([1]; 48 h p.i.): 0.015 ± 0.002 %ID/g | Biodistribution (%ID/g) Muscle ([1]; 48 h p.i.): 0.001 ± 0.001 %ID/g | Biodistribution (%ID/g) Pancreas ([1]; 48 h p.i.): 0.001 ± 0.001 %ID/g | Biodistribution (%ID/g) Small intestine ([1]; 48 h p.i.): 0.002 ± 0.000 %ID/g | Biodistribution (%ID/g) Spleen ([1]; 48 h p.i.): 0.024 ± 0.005 %ID/g | Biodistribution (%ID/g) Stomach ([1]; 48 h p.i.): 0.001 ± 0.000 %ID/g | fold less radioactivity associated with liver tissue compared to [^89Zr]Zr-DFO ([1]; 72 h p.i.): 9 fold | fold less radioactivity in the bone tissue than [^89Zr]Zr-DFO ([1]; 72 h p.i.): 3 fold | fold less radioactivity retained in the kidney than [^89Zr]Zr-DFO ([1]; 72 h p.i.): 69 fold | Biodistribution (%ID/g) Blood ([1]; 72 h p.i.): 0.003 ± 0.001 %ID/g | Biodistribution (%ID/g) Bone ([1]; 72 h p.i.): 0.023 ± 0.003 %ID/g | Biodistribution (%ID/g) Fat ([1]; 72 h p.i.): 0.001 ± 0.001 %ID/g | Biodistribution (%ID/g) Heart ([1]; 72 h p.i.): 0.004 ± 0.001 %ID/g | Biodistribution (%ID/g) Kidney ([1]; 72 h p.i.): 0.010 ± 0.002 %ID/g | Biodistribution (%ID/g) Large intestine ([1]; 72 h p.i.): 0.003 ± 0.001 %ID/g | Biodistribution (%ID/g) Liver ([1]; 72 h p.i.): 0.007 ± 0.001 %ID/g | Biodistribution (%ID/g) Lung ([1]; 72 h p.i.): 0.013 ± 0.003 %ID/g | Biodistribution (%ID/g) Muscle ([1]; 72 h p.i.): 0.001 ± 0.001 %ID/g | Biodistribution (%ID/g) Pancreas ([1]; 72 h p.i.): 0.001 ± 0.001 %ID/g | Biodistribution (%ID/g) Small intestine ([1]; 72 h p.i.): 0.001 ± 0.000 %ID/g | Biodistribution (%ID/g) Spleen ([1]; 72 h p.i.): 0.026 ± 0.002 %ID/g | Biodistribution (%ID/g) Stomach ([1]; 72 h p.i.): 0.001 ± 0.000 %ID/g | LogP [2]: −2.97± 0.02 | % Intact of [^89Zr]Zr-DOTMA (n = 3) Radio-ITLC ([3]; 0 h): ≥99.99% | % Intact of [^89Zr]Zr-DOTMA (n = 3) Radio-SE-HPLC ([3]; 0 h): ≥99.99% | % Intact of [^89Zr]Zr-DOTMA (n = 3) Radio-ITLC ([3]; 1 d): ≥99.99% | % Intact of [^89Zr]Zr-DOTMA (n = 3) Radio-SE-HPLC ([3]; 1 d): ≥99.99% | % Intact of [^89Zr]Zr-DOTMA (n = 3) Radio-ITLC ([3]; 3 d): ≥99.99% | % Intact of [^89Zr]Zr-DOTMA (n = 3) Radio-SE-HPLC ([3]; 3 d): ≥99.99% | % Intact of [^89Zr]Zr-DOTMA (n = 3) Radio-ITLC ([3]; 5 d): ≥99.99% | % Intact of [^89Zr]Zr-DOTMA (n = 3) Radio-SE-HPLC ([3]; 5 d): ≥99.99% | % Intact of [^89Zr]Zr-DOTMA (n = 3) Radio-ITLC ([3]; 7 d): ≥99.99% | % Intact of [^89Zr]Zr-DOTMA (n = 3) Radio-SE-HPLC ([3]; 7 d): 99.9 ± 0.1% | association of ^89Zr with serum proteins (in words) ([3]; incubation in human serum, seven-day time course): not associated with the serum proteins
